# Results from article PMC9636949 (Proceedings of the National Academy of Sciences of the …, 2022).
# Columns and labels:
# human α7-AChR [1] = biological target: T1, human α7-AChR (Homo sapiens, UniProt P36544); details: pH 7.4; cited from earlier work
# human α7-AChR [2] = biological target: T1, human α7-AChR; format: binding; details: read-out: Unlabeled-ligand half-competition concentration; pH 7.4
# T1 sequence (P36544 23-502): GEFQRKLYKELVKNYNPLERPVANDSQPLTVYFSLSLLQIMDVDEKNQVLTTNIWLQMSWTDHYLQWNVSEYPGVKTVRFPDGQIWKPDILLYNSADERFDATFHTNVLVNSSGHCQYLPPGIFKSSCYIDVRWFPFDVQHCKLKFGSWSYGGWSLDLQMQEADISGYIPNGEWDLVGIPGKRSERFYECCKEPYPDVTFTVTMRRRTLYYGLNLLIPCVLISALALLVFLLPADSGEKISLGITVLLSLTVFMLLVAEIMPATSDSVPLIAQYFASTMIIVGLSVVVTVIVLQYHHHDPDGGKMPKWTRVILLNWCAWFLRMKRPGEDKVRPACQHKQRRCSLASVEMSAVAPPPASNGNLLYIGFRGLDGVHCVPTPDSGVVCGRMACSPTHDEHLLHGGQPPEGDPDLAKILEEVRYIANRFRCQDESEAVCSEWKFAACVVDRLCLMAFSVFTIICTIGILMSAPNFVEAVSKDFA
Structure (SMILES),Unlabeled-ligand nH (Hill coefficient) (human α7-AChR [1]),IC50 (human α7-AChR [2]) [µM]
"C[N+](C)(C)CCO [Choline, choline]",1.28 ± 0.08,
CC[N+](C)(C)C [ETMA],,15.6 ± 1.09
"CN1CCC[C@H]1c1cccnc1 [Nicotine, nicotine]",1.41 ± 0.06,
"C[N+](C)(C)C [TMA, tetramethylammonium]",,11.4 ± 1.33
